Measured values reported in ChEMBL document CHEMBL5608229, “Innovative Multistage ML-QSAR Models for Malaria: From Data to Discovery” (ACS Med Chem Lett, 2024).

Experiments:
Plasmodium falciparum [1] = test: Antiplasmodial activity against asexual blood-stage CQ-sensitive Plasmodium falciparum 3D7 infected in RBC assessed as parasite growth reduction incubated for 72 hrs by SybrGreen dye based analysis; format: functional, organism-based; conditions: 3D7, Erythrocyte
Plasmodium falciparum [2] = test: Antiplasmodial activity against asexual blood-stage multidrug-resistant Plasmodium falciparum Dd2 infected in RBC assessed as parasite growth reduction incubated for 72 hrs by SybrGreen dye based analysis; format: functional, organism-based; conditions: Dd2, Erythrocyte
Plasmodium falciparum [3] = test: Antiplasmodial activity against […] Plasmodium falciparum NF54 assessed as parasite growth inhibition at 5 uM incubated for 48 hrs by luciferase based analysis relative to control; format: functional
Plasmodium berghei [4] = test: Antiplasmodial activity against […] Plasmodium berghei infected in mouse model assessed as parasite growth inhibition at 10 uM pre-infected mouse with parasite followed by blood collection from mouse and subsequent addition of compound in blood measured after 24 hrs by nano-luciferase based analysis relative to control; format: functional; conditions: read-out: INH
Plasmodium berghei [5] = test: Antiplasmodial activity against asexual liver schizonts-stage Plasmodium berghei infected in human Huh-7 cells assessed as parasite growth inhibition at 10 uM pretreated parasite with compound for 1 hr followed by parasitic infection in cells for 46 hrs by bioluminescence assay relative to control; format: functional
[6] = Cytotoxicity against African green monkey COS-7 cells incubated for 72 hrs by MTT assay; format: toxicity, cell-based; conditions: chlorocebus aethiops
[7] = Cytotoxicity against human HepG2 cells incubated for 72 hrs by MTT assay; format: toxicity, cell-based
[8] = Selectivity index, ratio of CC50 for African green monkey COS-7 cells to EC50 for asexual blood-stage CQ-sensitive Plasmodium falciparum 3D7 infected in RBC; format: toxicity; conditions: read-out: Ratio CC50/EC50
[9] = Selectivity index, ratio of CC50 for human HepG2 cells to EC50 for asexual blood-stage chloroquine-sensitive Plasmodium falciparum 3D7 infected in RBC
Plasmodium falciparum [10] = test: Antiplasmodial activity against asexual blood-stage CQ-sensitive Plasmodium falciparum 3D7 infected in RBC assessed as parasite growth inhibition at 5 uM incubated for 72 hrs by SybrGreen dye based analysis relative to control; format: functional; conditions: 3D7, Erythrocyte
Plasmodium falciparum [11] = test: Antiplasmodial activity against asexual blood-stage multidrug-resistant Plasmodium falciparum Dd2 infected in RBC assessed as parasite growth inhibition at 5 uM incubated for 72 hrs by SybrGreen dye based analysis relative to control; format: functional; conditions: Dd2, Erythrocyte

CCN(CC)CCCC(C)Nc1ccnc2cc(Cl)ccc12 (configuration not stated) [CHLOROQUINE]
EC50 (Plasmodium falciparum [1]): 0.008 µM
EC50 (Plasmodium falciparum [2]): 0.055 µM

CCc1ccc(C2CC(=O)C3=C(C2)NC(C)=C(C(=O)OCCc2ccccc2)C3c2ccncc2)cc1 (configuration not stated)
inhibition at 5 µM (Plasmodium falciparum [3]): 14%
percent ookinete growth inhibition (ex vivo) at 10 µM (Plasmodium berghei [4]): 11%
inhibition at 10 µM (Plasmodium berghei [5]): 92.2%
EC50 (Plasmodium falciparum [1]): 13.5 µM
CC50 at 72 h [6]: 125 µM
CC50 at 72 h [7]: 54.4 µM
selectivity ratio [8]: 9
selectivity ratio [9]: 4

c1ccc(C23CN4CCN(CC(C4)C2NCc2nc4ccccc4[nH]2)C3)cc1 (configuration not stated)
inhibition at 5 µM (Plasmodium falciparum [3]): 20%
percent ookinete growth inhibition (ex vivo) at 10 µM (Plasmodium berghei [4]): 56%
inhibition at 10 µM (Plasmodium berghei [5]): 0%
EC50 (Plasmodium falciparum [1]): > 10 µM
CC50 at 72 h [6]: > 100 µM
CC50 at 72 h [7]: > 100 µM

c1ccc(C23CN4CCN(CC(C4)C2NCc2ccc4c(c2)OCCO4)C3)cc1 (configuration not stated)
inhibition at 5 µM (Plasmodium falciparum [3]): 6%
percent ookinete growth inhibition (ex vivo) at 10 µM (Plasmodium berghei [4]): 0%
inhibition at 10 µM (Plasmodium berghei [5]): 0%
EC50 (Plasmodium falciparum [1]): > 10 µM
CC50 at 72 h [6]: > 100 µM
CC50 at 72 h [7]: > 100 µM

c1ccc2c(CCNC34CC5CC(CC(C5)C3)C4)c[nH]c2c1
inhibition at 5 µM (Plasmodium falciparum [3]): 12%
inhibition at 10 µM (Plasmodium berghei [5]): 0%
EC50 (Plasmodium falciparum [1]): 11.8 µM
CC50 at 72 h [6]: 77.3 µM
CC50 at 72 h [7]: 53.1 µM
selectivity ratio [8]: 7
selectivity ratio [9]: 4.5

Clc1ccc(-c2nc(Nc3ccc(I)cc3)c3ccccc3n2)cc1
inhibition at 5 µM (Plasmodium falciparum [3]): 6%
percent ookinete growth inhibition (ex vivo) at 10 µM (Plasmodium berghei [4]): 44.7%
EC50 (Plasmodium falciparum [1]): > 10 µM
CC50 at 72 h [6]: 51.5 µM
CC50 at 72 h [7]: 34.8 µM

COCCCNCCCCOc1ccc2ccccc2c1Br
inhibition at 5 µM (Plasmodium falciparum [10]): ≥ 50%
inhibition at 5 µM (Plasmodium falciparum [11]): ≥ 50%
inhibition at 5 µM (Plasmodium falciparum [3]): 51.3%
percent ookinete growth inhibition (ex vivo) at 10 µM (Plasmodium berghei [4]): 66.1%
inhibition at 10 µM (Plasmodium berghei [5]): 49.4%
EC50 (Plasmodium falciparum [1]): 3.04 µM
EC50 (Plasmodium falciparum [2]): 1.12 µM
CC50 at 72 h [6]: 11 µM
CC50 at 72 h [7]: 10.4 µM
selectivity ratio [8]: 2.7
selectivity ratio [9]: 3.4

CCc1nc(N)nc(N)c1-c1ccc(Cl)cc1 [PYRIMETHAMINE]
EC50 (Plasmodium falciparum [1]): 0.039 µM
EC50 (Plasmodium falciparum [2]): 6.01 µM

Cc1ccc(Nc2nc(-c3ccccc3Cl)nc3ccccc23)cc1
inhibition at 5 µM (Plasmodium falciparum [3]): 1%
percent ookinete growth inhibition (ex vivo) at 10 µM (Plasmodium berghei [4]): 45.6%
EC50 (Plasmodium falciparum [1]): > 10 µM
CC50 at 72 h [6]: 42.8 µM
CC50 at 72 h [7]: 33.2 µM

c1ccc(CCN2CCC(NC34CC5CC(CC(C5)C3)C4)CC2)cc1
inhibition at 5 µM (Plasmodium falciparum [10]): > 90%
inhibition at 5 µM (Plasmodium falciparum [11]): > 90%
inhibition at 5 µM (Plasmodium falciparum [3]): 86%
percent ookinete growth inhibition (ex vivo) at 10 µM (Plasmodium berghei [4]): 16%
inhibition at 10 µM (Plasmodium berghei [5]): 0%
EC50 (Plasmodium falciparum [1]): 1.78 µM
EC50 (Plasmodium falciparum [2]): 0.43 µM
CC50 at 72 h [6]: 48.3 µM
CC50 at 72 h [7]: 38.1 µM
selectivity ratio [8]: 27
selectivity ratio [9]: 21

Oc1c(CN2CCCCC2)cc(CN2CCCCC2)nc1-c1ccccc1
inhibition at 5 µM (Plasmodium falciparum [10]): > 50%
inhibition at 5 µM (Plasmodium falciparum [11]): > 50%
inhibition at 5 µM (Plasmodium falciparum [3]): 51%
percent ookinete growth inhibition (ex vivo) at 10 µM (Plasmodium berghei [4]): 0%
inhibition at 10 µM (Plasmodium berghei [5]): 0%
EC50 (Plasmodium falciparum [1]): 1.55 µM
EC50 (Plasmodium falciparum [2]): 1.65 µM
CC50 at 72 h [6]: > 100 µM
CC50 at 72 h [7]: > 100 µM
selectivity ratio [8]: > 64
selectivity ratio [9]: > 64

COc1cc2nnc(NCC3(N(C)C)CCCCC3)nc2cc1OC
inhibition at 5 µM (Plasmodium falciparum [10]): > 50%
inhibition at 5 µM (Plasmodium falciparum [11]): > 50%
inhibition at 5 µM (Plasmodium falciparum [3]): 94%
percent ookinete growth inhibition (ex vivo) at 10 µM (Plasmodium berghei [4]): 65.3%
inhibition at 10 µM (Plasmodium berghei [5]): 0%
EC50 (Plasmodium falciparum [1]): 0.65 µM
EC50 (Plasmodium falciparum [2]): 2.65 µM
CC50 at 72 h [6]: 51 µM
CC50 at 72 h [7]: 93.1 µM
selectivity ratio [8]: 78
selectivity ratio [9]: 142

C=CCc1cc(CN2CCC3(CC2)CN(C)CCN3C)ccc1O
inhibition at 5 µM (Plasmodium falciparum [10]): > 50%
inhibition at 5 µM (Plasmodium falciparum [11]): > 50%
inhibition at 5 µM (Plasmodium falciparum [3]): 51%
percent ookinete growth inhibition (ex vivo) at 10 µM (Plasmodium berghei [4]): 5.43%
inhibition at 10 µM (Plasmodium berghei [5]): 0%
EC50 (Plasmodium falciparum [1]): 1.49 µM
EC50 (Plasmodium falciparum [2]): 2.59 µM
CC50 at 72 h [6]: > 100 µM
CC50 at 72 h [7]: > 100 µM
selectivity ratio [8]: > 67
selectivity ratio [9]: > 67

C[C@H]1[C@H](OC(=O)CCC(=O)O)O[C@@H]2O[C@@]3(C)CC[C@H]4[C@H](C)CC[C@@H]1[C@@]24OO3 [ARTESUNATE]
EC50 (Plasmodium falciparum [1]): 0.002 µM
EC50 (Plasmodium falciparum [2]): 0.002 µM

COc1cc2nc(NCCc3nc(=O)c4c(C)c(C)sc4[nH]3)nc(N)c2cc1OC
inhibition at 5 µM (Plasmodium falciparum [10]): ≥ 50%
inhibition at 5 µM (Plasmodium falciparum [11]): ≥ 50%
inhibition at 5 µM (Plasmodium falciparum [3]): 94%
percent ookinete growth inhibition (ex vivo) at 10 µM (Plasmodium berghei [4]): 65%
inhibition at 10 µM (Plasmodium berghei [5]): 90.3%
EC50 (Plasmodium falciparum [1]): 1.38 µM
EC50 (Plasmodium falciparum [2]): 3.67 µM
CC50 at 72 h [6]: 12.3 µM
CC50 at 72 h [7]: 13.6 µM
selectivity ratio [8]: 9
selectivity ratio [9]: 9.9

CN(C)CCCN(CCCN(C)C)Cc1cccc2ccccc12
inhibition at 5 µM (Plasmodium falciparum [10]): > 50%
inhibition at 5 µM (Plasmodium falciparum [11]): > 50%
inhibition at 5 µM (Plasmodium falciparum [3]): 33%
percent ookinete growth inhibition (ex vivo) at 10 µM (Plasmodium berghei [4]): 3.26%
inhibition at 10 µM (Plasmodium berghei [5]): 0%
EC50 (Plasmodium falciparum [1]): 5.46 µM
EC50 (Plasmodium falciparum [2]): 2.64 µM
CC50 at 72 h [6]: > 100 µM
CC50 at 72 h [7]: > 100 µM
selectivity ratio [8]: > 18
selectivity ratio [9]: > 18

c1ccc2c(CCNC3CC4CCC3C4)c[nH]c2c1 (configuration not stated)
inhibition at 5 µM (Plasmodium falciparum [3]): 11.5%
inhibition at 10 µM (Plasmodium berghei [5]): 0%
EC50 (Plasmodium falciparum [1]): > 10 µM
CC50 at 72 h [6]: > 100 µM
CC50 at 72 h [7]: > 100 µM

CCCOc1c(Br)cc(C2C3=C(CCCC3=O)NC3=C2C(=O)CCC3)cc1OC
inhibition at 5 µM (Plasmodium falciparum [3]): 9.5%
percent ookinete growth inhibition (ex vivo) at 10 µM (Plasmodium berghei [4]): 56.8%
inhibition at 10 µM (Plasmodium berghei [5]): 6.96%
EC50 (Plasmodium falciparum [1]): > 10 µM
CC50 at 72 h [6]: 56.4 µM
CC50 at 72 h [7]: 30.5 µM

COc1ccc(CN2CCCC(CO)(Cc3ccccc3)C2)c(C)c1C (configuration not stated)
inhibition at 5 µM (Plasmodium falciparum [3]): 13.5%
percent ookinete growth inhibition (ex vivo) at 10 µM (Plasmodium berghei [4]): 42.7%
inhibition at 10 µM (Plasmodium berghei [5]): 73.9%
EC50 (Plasmodium falciparum [1]): > 10 µM
CC50 at 72 h [6]: 50.4 µM
CC50 at 72 h [7]: 44.1 µM
